Peptide text beside a SMILES is read from it.
Assays:
[1] = Toxicity against human erythrocytes assessed as lysis at 300 uM; format: cell-based; conditions: erythrocyte
Plasmodium falciparum = test: Growth inhibition of Plasmodium falciparum 3D7 in erythrocytes by [3H]hypoxanthine uptake; format: functional, organism-based
[2] = Toxicity against human erythrocytes assessed as lysis at 600 uM; format: cell-based; conditions: erythrocyte

Structure (SMILES)	Activity [1]	IC50 (Plasmodium falciparum)	Activity [2]
CCCCCCC1CC(=O)NCC(=O)N[C@@H](C(C)C)C(=O)N[C@H](CC(C)C)C(=O)N[C@@H](C)C(=O)N[C@@H](C(C)C)C(=O)O1 (stereo partly specified) [ISARIIN B]	Non-toxic	118 µM	Non-toxic
CC(C)CC1OC(=O)CCNC(=O)[C@H](Cc2ccccc2)N(C)C(=O)[C@H](C(C)C)N(C)C(=O)[C@H](Cc2ccccc2)NC(=O)[C@@H]2CCCN2C1=O (stereo partly specified) [ISARIDINE A] (HELM PEPTIDE1{F.[meV].[meF].[bAla].[CC(C)CC(O[*:1])C(=O)[*:2]].P}$PEPTIDE1,PEPTIDE1,1:R1-6:R2$$$V2.0)	Non-toxic	230 µM	Non-toxic

Source: ChEMBL document CHEMBL1139889, “Identification and characterization of a library of microheterogeneous cyclohexadepsipeptides from the fungus Isaria” (J Nat Prod, 2007)
